Test systems include 786-0 renal; CAKI-1 renal; HCC-2998 colon; HCT-116 colon; SF-295 CNS; SK-OV-3 ovarian; SN12C renal; TK-10 renal; HOP-92 NSCLC.
Holding throughout (assay): NCI-60 cell line screen, 48 h

Molecules are shown by their SMILES.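 How tested: cells in 96-well plates exposed to compound for 48 hours at five concentrations. GI50: concentration for 50% inhibition of growth. Definition used: TGI = concentration required for complete inhibition of growth.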

Consider `COc1ccc(NC(=O)CC(=O)n2nc(C)c(N=Nc3ccccc3C(=O)O)c2C)cc1`, for which the TGI was above 100 µM in the experiment with 786-0 renal; above 100 µM in the experiment on CAKI-1 renal; above 100 µM with HCC-2998 colon; above 100 µM in the experiment on HCT-116 colon; above 100 µM in the experiment with SF-295 CNS; 94.2 µM in the experiment with SK-OV-3 ovarian. Besides, the TGI in the experiment on SN12C renal and with TK-10 renal was above 100 µM throughout.
For the compound `CC(=O)NC(C=O)C(O[C@H](C)C(=O)NC(C)C(=O)NC(CCC(N)=O)C(=O)OCc1ccccc1)C(O)C(O)COC(=O)CCNc1c2ccccc2nc2cccc([N+](=O)[O-])c12` (some centres undefined), the TGI was found to be 18.7 µM in the experiment with 786-0 renal; 93.1 µM with CAKI-1 renal; 2.94 µM with HCC-2998 colon; 2.69 µM with HCT-116 colon; 5.41 µM in the experiment on HOP-92 NSCLC; 38.5 µM in the experiment on SF-295 CNS. For the same compound, the TGI came to 5.62 µM in the experiment on SN12C renal and 53.6 µM with TK-10 renal.
Take `CCCCCCCCCCCc1c(O)c(=O)c2c(oc3c(=O)c(CCCCCCCCCCC)c(O)c(=O)c3n2-c2ccc(N(C)C)cc2)c1=O`: the TGI was 33.9 µM with 786-0 renal; 39.7 µM in the experiment on CAKI-1 renal; 36.6 µM in the experiment on HCT-116 colon; 46.2 µM with SF-295 CNS; 37.9 µM with SK-OV-3 ovarian; 36.8 µM in the experiment on SN12C renal. In addition, the TGI in the experiment with TK-10 renal was 33 µM.
`O=c1[nH]cnc2c(COCCO)c[nH]c12`: the TGI with 786-0 renal, with CAKI-1 renal, with HOP-92 NSCLC, in the experiment on SF-295 CNS, in the experiment with SK-OV-3 ovarian and in the experiment with SN12C renal was above 100 µM each time. In the experiment on TK-10 renal, this compound returned a TGI above 100 µM.
Take `Cc1c2c(c(C)c3c1[nH]c1ccccc13)CN(C)CC2`: the TGI in the experiment on 786-0 renal amounted to 29.6 µM; in the experiment with CAKI-1 renal it was 27.4 µM; with HCC-2998 colon, 31.2 µM; in the experiment with HCT-116 colon it was 29.4 µM; with HOP-92 NSCLC, 57.5 µM; in the experiment with SF-295 CNS, 31.7 µM. Moreover, the TGI in the experiment on SK-OV-3 ovarian stood at 70.1 µM; in the experiment on SN12C renal it was 76.6 µM; in the experiment on TK-10 renal, 51.1 µM.
With `CC(=O)c1ccc(NC(=O)C(=O)C(C#N)CC(C)(C)C=O)cc1` (centres undefined), the TGI with 786-0 renal, with CAKI-1 renal, with HCC-2998 colon, in the experiment with HCT-116 colon, in the experiment on HOP-92 NSCLC and in the experiment on SF-295 CNS was above 100 µM each time. The TGI in the experiment with SK-OV-3 ovarian, in the experiment with SN12C renal and with TK-10 renal was above 100 µM each time.
Turning to `Nc1nc(N)c2nc3c(nc2n1)CCCCCCCCCC3`, the GI50 in the experiment on 786-0 renal is 0.675 µM; in the experiment on CAKI-1 renal it was 3.36 µM; in the experiment with HCC-2998 colon it was 3.83 µM; in the experiment with HCT-116 colon it was 0.379 µM; in the experiment on HOP-92 NSCLC, 3.23 µM; in the experiment on SF-295 CNS, 0.509 µM. Also, the GI50 is 12 µM with SK-OV-3 ovarian and 7.04 µM in the experiment on SN12C renal. Further, the TGI in the experiment with 786-0 renal, in the experiment with CAKI-1 renal, in the experiment on HCC-2998 colon, in the experiment with HCT-116 colon, with HOP-92 NSCLC and with SF-295 CNS was above 100 µM throughout. For the same compound, the TGI with SK-OV-3 ovarian and in the experiment with SN12C renal was above 100 µM in each case.
As for `CCC1(CN(C)C)CC/C(=C\c2ccc(OC)c(OC)c2)C1=O` (centres undefined), the TGI in the experiment on 786-0 renal, in the experiment with CAKI-1 renal, with HCC-2998 colon, with HCT-116 colon, in the experiment on HOP-92 NSCLC and in the experiment with SF-295 CNS was above 100 µM throughout. The TGI with SK-OV-3 ovarian, in the experiment with SN12C renal and with TK-10 renal was above 100 µM in each case.
Consider `NC(=O)CC(N=Cc1nc(-c2ccccc2)oc1O)C(=O)O` (centres undefined), for which the TGI in the experiment with 786-0 renal, in the experiment on CAKI-1 renal, with HCC-2998 colon, in the experiment with HCT-116 colon, in the experiment on HOP-92 NSCLC and with SF-295 CNS was above 100 µM each time. The TGI in the experiment with SK-OV-3 ovarian and with TK-10 renal was above 100 µM throughout.
As to `Cc1ccc(NC(=O)CCc2n[nH]c(=S)o2)cc1`, the TGI with 786-0 renal, in the experiment with CAKI-1 renal, with HCC-2998 colon, with HCT-116 colon, in the experiment on HOP-92 NSCLC and with SF-295 CNS was above 100 µM throughout. For the same compound, the TGI in the experiment with SN12C renal and with TK-10 renal was above 100 µM in each case.
In the case of `COc1cccc(SSc2cccc(OC)c2C(=O)O)c1C(=O)O`, the TGI with 786-0 renal, in the experiment on CAKI-1 renal, in the experiment with HCT-116 colon, with HOP-92 NSCLC, in the experiment with SF-295 CNS and in the experiment with SK-OV-3 ovarian was above 100 µM in each case. Besides, the TGI in the experiment on SN12C renal and in the experiment on TK-10 renal was above 100 µM in each case.
Take `N#CC1=C(O)NC(O)=C(C#N)C1c1ccc(C2C(C#N)=C(O)NC(O)=C2C#N)cc1`: the TGI with 786-0 renal, in the experiment on CAKI-1 renal, in the experiment with HCC-2998 colon, with HCT-116 colon, in the experiment on SF-295 CNS and in the experiment on SK-OV-3 ovarian was above 100 µM in each case. In addition, the TGI in the experiment with SN12C renal and with TK-10 renal was above 100 µM each time.
For `COC(=O)Cc1cc(=O)[nH]c2c1C(=O)CCC2`, the TGI with 786-0 renal, with HCC-2998 colon, in the experiment with HOP-92 NSCLC, with SF-295 CNS, in the experiment on SK-OV-3 ovarian and with SN12C renal was above 100 µM in each case. The TGI with TK-10 renal is above 100 µM.
Regarding `Cl.Fc1c[c-]c(-c2ccccn2)c(F)c1.[Pt].c1ccc([PH+](C[PH+](c2ccccc2)c2ccccc2)c2ccccc2)cc1`, the GI50 in the experiment with 786-0 renal is 0.211 µM; with CAKI-1 renal, 0.266 µM; with HOP-92 NSCLC it was 0.155 µM; in the experiment on SK-OV-3 ovarian it was 0.293 µM; in the experiment on TK-10 renal, 0.274 µM. Also, the TGI with 786-0 renal worked out at 0.468 µM; in the experiment with CAKI-1 renal it was 0.839 µM; in the experiment on HOP-92 NSCLC, 0.48 µM; in the experiment with SK-OV-3 ovarian it was 0.84 µM; in the experiment with TK-10 renal, 1.43 µM.
Regarding `O=C1CCCCC12CCC/C2=N\O` (centres undefined), the TGI with 786-0 renal, in the experiment with CAKI-1 renal, in the experiment with HCC-2998 colon, in the experiment on HCT-116 colon, in the experiment with SK-OV-3 ovarian and in the experiment on SN12C renal was above 100 µM each time. The compound also had a TGI with TK-10 renal above 100 µM.

Values taken from PubChem BioAssay (NCI).
